Reference: US10336739B2, “4-hydroxy-3-(heteroaryl)pyridine-2-one APJ agonists” (BRISTOL-MYERS SQUIBB COMPANY, priority 2015, dated 2019)

molecular target: human APJ receptor (Homo sapiens (Human), UniProt P35414); test: Intracellular cAMP accumulation assay (APJ hcAMP, HTRF); assay type: cell-based; details: HEK293 cells stably expressing human APJ receptor; inhibition of forskolin-mediated cAMP production; read-out: Human APJ cAMP EC50 Potency range
Method in brief: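 HEK293 cells stably expressing human APJ, 5,000 per well, exposed to compound with […] IBMX and 2 μM forskolin for 30 minutes at room temperature. cAMP measured by HTRF after lysis and 60 min detection incubation. EC50 from sigmoidal variable-slope fits of inhibition of forskolin-induced cAMP, quantified against a cAMP standard curve.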

Sequence of human APJ receptor (P35414 whole entry): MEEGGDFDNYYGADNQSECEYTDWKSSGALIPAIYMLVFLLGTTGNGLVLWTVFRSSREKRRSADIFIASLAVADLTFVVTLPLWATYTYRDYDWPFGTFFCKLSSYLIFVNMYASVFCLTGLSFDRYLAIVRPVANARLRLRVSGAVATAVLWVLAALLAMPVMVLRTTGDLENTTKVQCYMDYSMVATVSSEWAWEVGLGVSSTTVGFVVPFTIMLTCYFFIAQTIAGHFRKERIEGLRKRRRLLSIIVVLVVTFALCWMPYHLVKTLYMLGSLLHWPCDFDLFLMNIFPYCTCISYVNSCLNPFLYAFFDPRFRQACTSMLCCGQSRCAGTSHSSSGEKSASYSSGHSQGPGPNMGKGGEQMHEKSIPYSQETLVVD

Compound CCCCc1nc(O)c(-c2nnc(Cc3noc4ccccc34)o2)c(O)c1-c1c(C)cccc1C [Example 224, 3-[5-(1,2-benzoxazol-3-ylmethyl)-1,3,4-oxadiazol-2-yl]-6-butyl-5-(2,6-dimethylphenyl)pyridine-2,4-diol] has an EC50 of 0.01 to 10 nM.

same assay, conditions: HEK293 cells stably expressing human APJ receptor; inhibition of forskolin-mediated cAMP production; read-out: hAPJ cAMP EC50 (nM) Potency range

CCCCc1nc(O)c(-c2nnc(CC(=O)NCc3nc4ccccc4s3)o2)c(O)c1-c1c(OC)cccc1OC [Example 254, N-[(1,3-benzothiazol-2-yl)methyl]-2-{5-[6-butyl-5-(2,6-dimethoxyphenyl)-2,4-dihydroxypyridin-3-yl]-1,3,4-oxadiazol-2-yl}acetamide] and CCCCc1nc(O)c(-c2nnc(CC(=O)N(C)CCc3ccccc3)o2)c(O)c1-c1c(OC)cccc1OC [Example 261, 2-{5-[6-butyl-5-(2,6-dimethoxyphenyl)-2,4-dihydroxy-pyridin-3-yl]-1,3,4-oxadiazol-2-yl}-N-methyl-N-(2-phenylethyl) acetamide] fall in the same range of EC50: 0.01 to 10 nM for the first, 0.01 to 10 nM for the second.

First: CCOCc1nc(O)c(-c2nnc(Cc3ccc(Cl)cn3)o2)c(O)c1-c1c(O)cccc1OC [Example 275, 3-{5-[(5-chloropyridin-2-yl)methyl]-1,3,4-oxadiazol-2-yl}-6-(ethoxymethyl)-5-(2-hydroxy-6-methoxyphenyl) pyridine-2,4-diol]
Second: COCCOCc1nc(O)c(-c2nnc(Cc3ccc(Cl)cn3)o2)c(O)c1-c1c(OC)cccc1OC [Example 240, 3-{5-[(5-chloropyridin-2-yl)methyl]-1,3,4-oxadiazol-2-yl}-5-(2,6-dimethoxyphenyl)-6-[(2-methoxyethoxy)methyl] pyridine-2,4-diol]
The EC50 of the first is higher: 10 to 100 nM for the first, 0.01 to 10 nM for the second. The second is the more potent here.

First: CCOCc1nc(O)c(-c2nnc(Cc3ncc(Cl)cc3F)o2)c(O)c1-c1c(OC)cccc1OC [Example 237, 3-{5-[(5-chloro-3-fluoropyridin-2-yl)methyl]-1,3,4-oxadiazol-2-yl}-5-(2,6-dimethoxyphenyl)-6-(ethoxymethyl) pyridine-2,4-diol]
Second: CCOCc1nc(O)c(-c2nnc(Cc3ccc(Cl)cc3)s2)c(O)c1-c1c(OC)cccc1OC [Example 234, 3-{5-[(4-chlorophenyl)-methyl]-1,3,4-thiadiazol-2-yl}-5-(2,6-dimethoxyphenyl)-6-(ethoxymethyl)-pyridine-2,4-diol]
The EC50 of the first is lower: 0.01 to 10 nM for the first, 10 to 100 nM for the second.

same assay, conditions: HEK293 cells stably expressing human APJ receptor; inhibition of forskolin-mediated cAMP production; read-out: hAPJ cAMP EC50 Potency range

CCOCc1nc(O)c(-c2nnc(Cc3ccc(Cl)cn3)o2)c(O)c1-c1c(OC)cccc1OC [Example 127, 3-{5-[(5-chloropyridin-2-yl)methyl]-1,3,4-oxadiazol-2-yl}-5-(2,6-dimethoxyphenyl)-6-(ethoxymethyl) pyridine-2,4-diol] and CCOCc1nc(O)c(-c2nnc(Cc3ccc(Cl)cc3)o2)c(O)c1-c1c(OC)cccc1OC [Example 90, 3-{5-[(4-chlorophenyl)methyl]-1,3,4-oxadiazol-2-yl}-5-(2,6-dimethoxyphenyl)-6-(ethoxymethyl) pyridine-2,4-diol] fall in the same range of EC50: 0.01 to 10 nM for the first, 0.01 to 10 nM for the second.

CCCCc1nc(O)c(-c2nnc(CC(=O)Nc3nccs3)o2)c(O)c1-c1c(OC)cccc1OC [Example 201, 2-{5-[6-butyl-5-(2,6-dimethoxyphenyl)-2,4-dihydroxypyridin-3-yl]-1,3,4-oxadiazol-2-yl}-N-(1,3-thiazol-2-yl)acetamide] and CCCCc1nc(O)c(-c2nnc(CCc3nccn3C)o2)c(O)c1-c1c(OC)cccc1OC [Example 29, 6-butyl-5-(2,6-dimethoxyphenyl)-3-{5-[2-(1-methyl-1H-imidazol-2-yl)ethyl]-1,3,4-oxadiazol-2-yl}pyridine-2,4-diol] fall in the same range of EC50: 0.01 to 10 nM for the first, 0.01 to 10 nM for the second.

First: CCCCc1[nH]c(=O)c(-c2nnc(Cc3csc(C)n3)o2)c(O)c1-c1cccc(C(C)C)c1 [Example 148, 6-butyl-4-hydroxy-3-{5-[(2-methyl-1,3-thiazol-4-yl)methyl]-1,3,4-oxadiazol-2-yl}-5-[3-(propan-2-yl)phenyl]-1,2-dihydropyridin-2-one]
Second: COc1cccc(OC)c1-c1c(C2CC2)nc(O)c(-c2nnc(Cc3csc(C)n3)o2)c1O [Example 94, 6-cyclopropyl-5-(2,6-dimethoxyphenyl) 3-{5-[(2-methyl-1,3-thiazol-4-yl)methyl]-1,3,4-oxadiazol-2-yl}pyridine-2,4-diol]
The EC50 of the first is lower: 0.01 to 10 nM for the first, 10 to 100 nM for the second.

CCCCc1nc(O)c(-c2nnc(CC(=O)N3CC(F)C3)o2)c(O)c1-c1c(OC)cccc1OC [Example 199, 2-{5-[6-butyl-5-(2,6-dimethoxyphenyl)-2,4-dihydroxypyridin-3-yl]-1,3,4-oxadiazol-2-yl}-1-(3-fluoroazetidin-1-yl)ethan-1-one] and CCCCc1nc(O)c(-c2nnc(CC(=O)N3CCNC(=O)C3)o2)c(O)c1-c1c(OC)cccc1OC [Example 184, 4-(2-{5-[6-butyl-5-(2,6-dimethoxyphenyl)-2,4-dihydroxypyridin-3-yl]-1,3,4-oxadiazol-2-yl}acetyl) piperazin-2-one] fall in the same range of EC50: 0.01 to 10 nM for the first, 0.01 to 10 nM for the second.

First: CCCCc1nc(O)c(-c2nnc(Cc3ccnc(Cl)c3)o2)c(O)c1-c1c(OC)cccc1OC [Example 59, 6-butyl-3-{5-[(2-chloropyridin-4-yl)methyl]-1,3,4-oxadiazol-2-yl}-5-(2,6-dimethoxyphenyl) pyridine-2,4-diol]
Second: CCCCc1nc(O)c(-c2nnc(Cc3ccncc3)o2)c(O)c1-c1c(OC)cccc1OC [Example 3, 6-butyl-5-(2,6-dimethoxyphenyl)-3-[5-(pyridin-4-ylmethyl)-1,3,4-oxadiazol-2-yl]pyridine-2,4-diol]
The EC50 of the first is lower: 0.01 to 10 nM for the first, 10 to 100 nM for the second.

First: CCCCc1nc(O)c(-c2nnc(Cc3ccc(Cl)cc3)o2)c(O)c1-c1c(Cl)cccc1Cl [Example 87, 6-butyl-3-{5-[(4-chlorophenyl)methyl]-1,3,4-oxadiazol-2-yl}-5-(2,6-dichlorophenyl) pyridine-2,4-diol]
Second: CCCCc1nc(O)c(-c2nnc(Cc3ccc(C(F)(F)F)cc3)o2)c(O)c1-c1c(OC)cccc1OC [Example 80, 6-butyl-5-(2,6-dimethoxyphenyl)-3-(5-{[4-(trifluoromethyl)phenyl]methyl}-1,3,4-oxadiazol-2-yl)pyridine-2,4-diol]
The EC50 of the first is higher: 10 to 100 nM for the first, 0.01 to 10 nM for the second. The second is the more potent here.

CCOCc1nc(O)c(-c2nnc(Cc3ccc(F)nc3)o2)c(O)c1-c1c(OC)cccc1OC [Example 131, 5-(2,6-dimethoxyphenyl)-6-(ethoxymethyl)-3-{5-[(6-fluoropyridin-3-yl)methyl]-1,3,4-oxadiazol-2-yl}pyridine-2,4-diol] and CCOCc1nc(O)c(-c2nnc(Cc3ccc(C)c(F)c3)o2)c(O)c1-c1c(OC)cccc1OC [Example 126, 5-(2,6-dimethoxyphenyl)-6-(ethoxymethyl)-3-{5-[(3-fluoro-4-methylphenyl)methyl]-1,3,4-oxadiazol-2-yl}pyridine-2,4-diol] fall in the same range of EC50: 0.01 to 10 nM for the first, 0.01 to 10 nM for the second.

CCCCc1nc(O)c(-c2nnc(Cc3ccc(F)c(OC)c3)o2)c(O)c1-c1c(OC)cccc1OC [Example 48, 6-butyl-5-(2,6-dimethoxyphenyl)-3-{5-[(4-fluoro-3-methoxyphenyl)methyl]-1,3,4-oxadiazol-2-yl}pyridine-2,4-diol] and CCCCc1nc(O)c(-c2nnc(Cc3nnc(Cc4ccccc4)o3)o2)c(O)c1-c1c(OC)cccc1OC [Example 209, 3-{5-[(5-benzyl-1,3,4-oxadiazol-2-yl)methyl]-1,3,4-oxadiazol-2-yl}-6-butyl-5-(2,6-dimethoxyphenyl) pyridine-2,4-diol] fall in the same range of EC50: 0.01 to 10 nM for the first, 0.01 to 10 nM for the second.

CCCCc1nc(O)c(-c2nnc(CCc3ncccn3)o2)c(O)c1-c1c(OC)cccc1OC [Example 81, 6-butyl-5-(2,6-dimethoxyphenyl)-3-{5-[2-(pyrimidin-2-yl)ethyl]-1,3,4-oxadiazol-2-yl}pyridine-2,4-diol] and CCCCc1nc(O)c(-c2nnc(Cc3nc(-c4ccncc4)no3)o2)c(O)c1-c1c(OC)cccc1OC [Example 104, 6-butyl-5-(2,6-dimethoxyphenyl)-3-(5-{[3-(pyridin-4-yl)-1,2,4-oxadiazol-5-yl]methyl}-1,3,4-oxadiazol-2-yl)pyridine-2,4-diol] fall in the same range of EC50: 0.01 to 10 nM for the first, 0.01 to 10 nM for the second.

First: C=CCCc1nc(O)c(-c2nnc(Cc3ccccc3)o2)c(O)c1-c1c(OC)cccc1OC [Example 18, 3-(5-benzyl-1,3,4-oxadiazol-2-yl)-6-(but-3-en-1-yl)-5-(2,6-dimethoxyphenyl) pyridine-2,4-diol]
Second: CCCCc1nc(O)c(-c2nnc(CN(C)C(=O)c3ccccc3)o2)c(O)c1-c1c(OC)cccc1OC [Example 172, N-({5-[6-butyl-5-(2,6-dimethoxyphenyl)-2,4-dihydroxypyridin-3-yl]-1,3,4-oxadiazol-2-yl}methyl)-N-methylbenzamide]
The EC50 of the first is higher: 10 to 100 nM for the first, 0.01 to 10 nM for the second. The second is the more potent here.

First: CCCCc1nc(O)c(-c2nnc(CC(=O)NCC(F)F)o2)c(O)c1-c1c(OC)cccc1OC [Example 191, 2-{5-[6-butyl-5-(2,6-dimethoxyphenyl)-2,4-dihydroxypyridin-3-yl]-1,3,4-oxadiazol-2-yl}-N-(2,2-difluoroethyl) acetamide]
Second: CCCCc1nc(O)c(-c2nnc(CC(=O)NCCOC)o2)c(O)c1-c1c(OC)cccc1OC [Example 193, 2-{5-[6-butyl-5-(2,6-dimethoxyphenyl)-2,4-dihydroxypyridin-3-yl]-1,3,4-oxadiazol-2-yl}-N-(2-methoxyethyl) acetamide]
The EC50 of the first is lower: 0.01 to 10 nM for the first, 10 to 100 nM for the second.

First: CCCCc1nc(O)c(-c2nnc(CN3CCOCC3=O)o2)c(O)c1-c1c(OC)cccc1OC [Example 117, 4-({5-[6-butyl-5-(2,6-dimethoxyphenyl)-2,4-dihydroxypyridin-3-yl]-1,3,4-oxadiazol-2-yl}methyl) morpholin-3-one]
Second: CCOCc1nc(O)c(-c2nnc(Cn3ccc(C(F)(F)F)n3)o2)c(O)c1-c1c(OC)cccc1OC [Example 129, 5-(2,6-dimethoxyphenyl)-6-(ethoxymethyl)-3-(5-{[3-(trifluoromethyl)-1H-pyrazol-1-yl]methyl}-1,3,4-oxadiazol-2-yl)pyridine-2,4-diol]
The EC50 of the first is lower: 0.01 to 10 nM for the first, 10 to 100 nM for the second.
